Source: US20240158370A1, “CK1 alpha AND DUAL CK1 alpha / GSPT1 DEGRADING COMPOUNDS” (Innovo Therapeutics, Inc., priority 2022, published 2024)

What was measured:
GSPT1 = GSPT1 (Homo sapiens, UniProt P15170+Q96SW2); assay: HiBiT degradation assay, GSPT1, Procedure A; assay type: cell-based; design: HiBit-GSPT1 KI HEK293(LgBit) Cells; host or cells: HEK293(LgBit) knock-in cells
How it was run: (§1)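 10-pt dose response, 10–0.005 μM, 0.1% DMSO; cells 1×10^6/ml in DMEM/10% FBS, 6 h, 37° C; HiBiT lytic detection, luminescence; DC50 + Ymin by 4-parameter fit.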

CK1α = molecular target: T1, CK1α (Homo sapiens, UniProt P48729+Q96SW2); assay: HiBiT degradation assay, CK1α, Procedure A; assay type: cell-based
T1 construct: CSNK1A1-HiBit KI HEK293(LgBit) Cells; host or cells: HEK293(LgBit) knock-in cells
How it was run: as §1

Sequence of GSPT1 (P15170 whole entry): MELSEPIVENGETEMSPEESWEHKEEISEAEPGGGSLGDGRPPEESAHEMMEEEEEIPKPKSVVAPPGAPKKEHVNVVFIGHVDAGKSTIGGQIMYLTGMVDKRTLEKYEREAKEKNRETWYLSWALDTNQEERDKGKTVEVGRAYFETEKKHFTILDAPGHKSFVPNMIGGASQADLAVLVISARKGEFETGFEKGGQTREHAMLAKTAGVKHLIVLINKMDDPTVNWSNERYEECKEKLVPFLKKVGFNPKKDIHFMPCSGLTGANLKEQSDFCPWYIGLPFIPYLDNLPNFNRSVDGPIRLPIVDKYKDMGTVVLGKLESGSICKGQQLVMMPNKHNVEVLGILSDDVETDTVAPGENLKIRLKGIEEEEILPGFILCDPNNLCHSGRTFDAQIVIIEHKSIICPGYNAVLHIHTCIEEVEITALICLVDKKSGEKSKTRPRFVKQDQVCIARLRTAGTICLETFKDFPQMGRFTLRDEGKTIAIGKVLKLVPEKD
Sequence of GSPT1 (Q96SW2 whole entry): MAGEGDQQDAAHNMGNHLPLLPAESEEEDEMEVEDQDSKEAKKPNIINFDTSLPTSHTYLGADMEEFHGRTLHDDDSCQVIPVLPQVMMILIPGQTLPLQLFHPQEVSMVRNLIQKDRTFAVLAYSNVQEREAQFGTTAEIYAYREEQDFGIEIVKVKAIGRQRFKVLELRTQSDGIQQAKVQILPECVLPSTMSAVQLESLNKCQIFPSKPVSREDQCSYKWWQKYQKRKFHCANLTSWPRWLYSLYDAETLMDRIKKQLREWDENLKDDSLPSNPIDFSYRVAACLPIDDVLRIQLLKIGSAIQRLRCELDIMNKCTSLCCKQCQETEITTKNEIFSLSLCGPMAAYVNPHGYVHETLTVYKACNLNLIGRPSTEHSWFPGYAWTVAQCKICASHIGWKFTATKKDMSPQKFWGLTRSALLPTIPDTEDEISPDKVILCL
Sequence of GSPT1 (Q16531 whole entry partner): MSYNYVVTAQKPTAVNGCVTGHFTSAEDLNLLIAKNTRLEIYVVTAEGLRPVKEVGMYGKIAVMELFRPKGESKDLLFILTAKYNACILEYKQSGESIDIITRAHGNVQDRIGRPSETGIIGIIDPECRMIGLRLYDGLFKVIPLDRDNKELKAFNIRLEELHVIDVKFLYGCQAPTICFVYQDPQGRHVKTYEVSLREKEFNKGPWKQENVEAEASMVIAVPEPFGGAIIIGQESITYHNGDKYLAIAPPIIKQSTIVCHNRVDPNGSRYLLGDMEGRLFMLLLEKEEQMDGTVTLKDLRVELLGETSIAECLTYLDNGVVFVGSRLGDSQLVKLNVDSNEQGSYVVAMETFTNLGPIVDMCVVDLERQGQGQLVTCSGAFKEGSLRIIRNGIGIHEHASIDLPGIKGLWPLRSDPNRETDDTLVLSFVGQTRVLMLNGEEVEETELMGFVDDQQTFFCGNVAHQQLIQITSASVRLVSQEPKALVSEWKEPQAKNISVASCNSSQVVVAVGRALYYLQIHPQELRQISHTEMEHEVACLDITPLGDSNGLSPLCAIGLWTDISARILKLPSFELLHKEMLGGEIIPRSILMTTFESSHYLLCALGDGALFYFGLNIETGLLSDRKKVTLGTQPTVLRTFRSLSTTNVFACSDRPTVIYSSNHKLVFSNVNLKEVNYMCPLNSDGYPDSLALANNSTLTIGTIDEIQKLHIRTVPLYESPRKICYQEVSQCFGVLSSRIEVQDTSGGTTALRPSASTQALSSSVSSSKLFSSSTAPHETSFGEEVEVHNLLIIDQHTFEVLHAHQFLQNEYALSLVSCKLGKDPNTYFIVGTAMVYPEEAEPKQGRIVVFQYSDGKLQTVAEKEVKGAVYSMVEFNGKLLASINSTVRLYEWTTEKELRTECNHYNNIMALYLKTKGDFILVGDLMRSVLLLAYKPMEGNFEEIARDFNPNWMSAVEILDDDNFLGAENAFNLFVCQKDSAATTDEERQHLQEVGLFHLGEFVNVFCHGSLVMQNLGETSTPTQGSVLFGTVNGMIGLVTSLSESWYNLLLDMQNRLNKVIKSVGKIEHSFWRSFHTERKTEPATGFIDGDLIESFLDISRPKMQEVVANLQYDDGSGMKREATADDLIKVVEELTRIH
T1 sequence (P48729 whole entry): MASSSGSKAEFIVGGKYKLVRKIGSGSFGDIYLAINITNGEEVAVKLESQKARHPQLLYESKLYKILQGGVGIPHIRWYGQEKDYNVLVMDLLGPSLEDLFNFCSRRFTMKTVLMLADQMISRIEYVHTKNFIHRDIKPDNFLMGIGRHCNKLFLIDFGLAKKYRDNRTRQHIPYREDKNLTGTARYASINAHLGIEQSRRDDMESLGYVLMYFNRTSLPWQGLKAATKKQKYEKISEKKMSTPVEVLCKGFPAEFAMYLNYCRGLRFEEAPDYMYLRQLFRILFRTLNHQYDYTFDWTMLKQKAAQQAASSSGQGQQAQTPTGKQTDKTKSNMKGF
T1 sequence (Q96SW2 whole entry): as the sequence (Q96SW2 whole entry) above
T1 sequence (Q16531 whole entry partner): as the sequence (Q16531 whole entry partner) above

SMILES | DC50 (GSPT1; six hours incubation) | GSPT1 Ymin (GSPT1; six hours incubation) | CK1α Ymin (CK1α; six hours incubation) | DC50 (CK1α; six hours incubation) | DC50 (GSPT1; six hours) | GSPT1 Ymin (GSPT1; six hours) | CK1α Ymin (CK1α; six hours) | DC50 (CK1α; six hours)
Cn1c(C2CC2)nc(-c2ccc3c(c2)CN(C2CCC(=O)NC2=O)C3=O)c1-c1ccncc1 (centres unmarked) [Example 45, 3-(5-(2-Cyclopropyl-1-methyl-5-(pyridin-4-yl)-1H-imidazol-4-yl)-1-oxoisoindolin-2-yl)piperidine-2,6-dione] | ≥ 25 nM | F (F = >75-100% remaining) | C (C = 0-10% remaining) | < 25 nM |  |  |  | 
Cn1cnc(-c2ccc3c(c2)CN(C2CCC(=O)NC2=O)C3=O)c1-c1ccc2nccnc2c1 (centres unmarked) [Example 494] |  |  |  |  | ≥ 25 nM | F (F = >75-100% remaining) | E (E = >25-75% remaining) | ≥ 25 nM
CC(F)(F)Cn1ncc(-c2ccc3c(c2)CN(C2CCC(=O)NC2=O)C3=O)c1-c1ccccc1 (centres unmarked) [Example 336, 3-(5-(1-(2,2-difluoropropyl)-5-phenyl-1H-pyrazol-4-yl)-1-oxoisoindolin-2-yl)piperidine-2,6-dione] | ≥ 25 nM | F (F = >75-100% remaining) | D (D = >10- 25% remaining) | ≥ 25 nM |  |  |  | 
Cn1ncc(-c2ccc3c(c2)CN(C2CCC(=O)NC2=O)C3=O)c1-c1ccc(C(F)(F)F)cc1 (centres unmarked) [Example 63] | ≥ 25 nM | F (F = >75-100% remaining) | E (E = >25-75% remaining) | < 25 nM |  |  |  | 
Cn1nccc1-c1c(-c2ccc3c(c2)CN(C2CCC(=O)NC2=O)C3=O)cnn1C (centres unmarked) [Example 451] |  |  |  |  | ≥ 25 nM | F (F = >75-100% remaining) | E (E = >25-75% remaining) | ≥ 25 nM
O=C1CCC(N2Cc3cc(-c4cnn(-c5ccccc5)c4)ccc3C2=O)C(=O)N1 (centres unmarked) [Example 9, 3-(1-Oxo-5-(1-phenyl-1H-pyrazol-4-yl)isoindolin-2-yl)piperidine-2,6-dione] | ≥ 25 nM | E (E = >25-75% remaining) | E (E = >25-75% remaining) | ≥ 25 nM |  |  |  | 
Cn1cnc(-c2ccc3c(c2)CN(C2CCC(=O)NC2=O)C3=O)c1-c1cc(F)cc(Cl)c1 (centres unmarked) [Example 204] | ≥ 25 nM | F (F = >75-100% remaining) | E (E = >25-75% remaining) | < 25 nM |  |  |  | 
Cc1n[nH]c(-c2ccccc2)c1-c1ccc2c(c1)CN(C1CCC(=O)NC1=O)C2=O (centres unmarked) [Example 30, 3-(5-(3-Methyl-5-phenyl-1H-pyrazol-4-yl)-1-oxoisoindolin-2-yl) piperidine-2,6-dione] | ≥ 25 nM | F (F = >75-100% remaining) | E (E = >25-75% remaining) | ≥ 25 nM |  |  |  | 
Cc1cncc(-c2c(-c3ccc4c(c3)CN(C3CCC(=O)NC3=O)C4=O)ncn2C)c1 (centres unmarked) [Example 321] | ≥ 25 nM | F (F = >75-100% remaining) | D (D = >10- 25% remaining) | < 25 nM |  |  |  | 
Cn1cnc(-c2ccc3c(c2)CN(C2CCC(=O)NC2=O)C3=O)c1-c1ccc2nc[nH]c2c1 (centres unmarked) [Example 401] |  |  |  |  | ≥ 25 nM | E (E = >25-75% remaining) | C (C = 0-10% remaining) | < 25 nM
Cn1nc(-c2ccc3c(c2)CN(C2CCC(=O)NC2=O)C3=O)nc1[C@H]1CC[C@@H](C)CC1 (some centres unmarked) [Example 617, 3-(5-(1-methyl-5-((1s,4s)-4-methylcyclohexyl)-1H-1,2,4-triazol-3-yl)-1-oxoisoindolin-2-yl)piperidine-2,6-dione] |  |  |  |  | < 25 nM | F (F = >75-100% remaining) | E (E = >25-75% remaining) | < 25 nM
COc1ccccc1-c1c(-c2ccc3c(c2)CN(C2CCC(=O)NC2=O)C3=O)cnn1C (centres unmarked) [Example 96] | ≥ 25 nM | F (F = >75-100% remaining) | E (E = >25-75% remaining) | ≥ 25 nM |  |  |  | 
Cn1ncc(-c2ccc3c(c2)CN(C2CCC(=O)NC2=O)C3=O)c1-c1ccc2cnn(C)c2c1 (centres unmarked) [Example 389] |  |  |  |  | ≥ 25 nM | F (F = >75-100% remaining) | E (E = >25-75% remaining) | < 25 nM
Cn1cnc(-c2ccc3c(c2)CN(C2CCC(=O)NC2=O)C3=O)c1-c1ccc(F)c(C(F)(F)F)c1 (centres unmarked) [Example 293] | < 25 nM | F (F = >75-100% remaining) | E (E = >25-75% remaining) | ≥ 25 nM |  |  |  | 
Cn1ncc(-c2ccc3c(c2)CN(C2CCC(=O)NC2=O)C3=O)c1-c1ccccc1-c1ccccc1 (centres unmarked) [Example 145] | < 25 nM | F (F = >75-100% remaining) | C (C = 0-10% remaining) | < 25 nM |  |  |  | 
Cn1ncc(-c2ccc3c(c2)CN(C2CCC(=O)NC2=O)C3=O)c1-c1ccccc1 (centres unmarked) [Example 1, 3-(5-(1-Methyl-5-phenyl-1H-pyrazol-4-yl)-1-oxoisoindolin-2-yl)piperidine-2,6-dione] | ≥ 25 nM | F (F = >75-100% remaining) | D (D = >10- 25% remaining) | < 25 nM |  |  |  | 
COc1ccc(-c2nn(C(F)F)cc2-c2ccc3c(c2)CN(C2CCC(=O)NC2=O)C3=O)c(Cl)c1 (centres unmarked) [Example 425, 3-(5-(3-(2-chloro-4-methoxyphenyl)-1-(difluoromethyl)-1H-pyrazol-4-yl)-1-oxoisoindolin-2-yl)piperidine-2,6-dione] |  |  |  |  | ≥ 25 nM |  | D (D = >10- 25% remaining) | < 25 nM
Cn1ncc(-c2ccc3c(c2)CN(C2CCC(=O)NC2=O)C3=O)c1-c1ccc2c(c1)CCCO2 (centres unmarked) [Example 477] |  |  |  |  | ≥ 25 nM | F (F = >75-100% remaining) | C (C = 0-10% remaining) | < 25 nM
Cn1cnc(-c2ccc3c(c2)CN(C2CCC(=O)NC2=O)C3=O)c1-c1cccc(CN2CCCC2)c1 (centres unmarked) [Example 295] | ≥ 25 nM | F (F = >75-100% remaining) | D (D = >10- 25% remaining) | ≥ 25 nM |  |  |  | 
Cn1ncc(-c2ccc3c(c2)CN(C2CCC(=O)NC2=O)C3=O)c1-c1cccc(C(N)=O)c1 (centres unmarked) [Example 138] | < 25 nM | F (F = >75-100% remaining) | E (E = >25-75% remaining) | ≥ 25 nM |  |  |  | 
Cn1cnc(-c2ccc3c(c2)CN(C2CCC(=O)NC2=O)C3=O)c1-c1ccc2nccn2c1 (centres unmarked) [Example 528] |  |  |  |  | ≥ 25 nM | E (E = >25-75% remaining) | D (D = >10- 25% remaining) | ≥ 25 nM

Other lines, results leading:

DC50 (GSPT1; six hours incubation) | GSPT1 Ymin (GSPT1; six hours incubation) | CK1α Ymin (CK1α; six hours incubation) | DC50 (CK1α; six hours incubation) | DC50 (GSPT1; six hours) | GSPT1 Ymin (GSPT1; six hours) | CK1α Ymin (CK1α; six hours) | DC50 (CK1α; six hours) | SMILES
 |  |  |  | ≥ 25 nM | E (E = >25-75% remaining) | C (C = 0-10% remaining) | < 25 nM | Cc1cccc(-c2nc(-c3ccc4c(c3)CN(C3CCC(=O)NC3=O)C4=O)cn2C)c1 (centres unmarked) [Example 570]
≥ 25 nM | E (E = >25-75% remaining) | E (E = >25-75% remaining) | < 25 nM |  |  |  |  | Cc1ccc(-c2c(-c3ccc4c(c3)CN(C3CCC(=O)NC3=O)C4=O)ncn2C)c(C)c1 (centres unmarked) [Example 166]
 |  |  |  | < 25 nM | E (E = >25-75% remaining) | C (C = 0-10% remaining) | < 25 nM | Cn1cnc(-c2ccc3c(c2)CN(C2CCC(=O)NC2=O)C3=O)c1-c1ccc2c(c1)CCO2 (centres unmarked) [Example 443]
≥ 25 nM | F (F = >75-100% remaining) | D (D = >10- 25% remaining) | < 25 nM |  |  |  |  | Cn1cnc(-c2ccc3c(c2)CN(C2CCC(=O)NC2=O)C3=O)c1-c1ccc(C2(C#N)CC2)cc1 (centres unmarked) [Example 279]
< 25 nM | E (E = >25-75% remaining) | C (C = 0-10% remaining) | < 25 nM |  |  |  |  | O=C1CCC(N2Cc3cc(-c4ncoc4-c4ccccc4)ccc3C2=O)C(=O)N1 (centres unmarked) [Example 15, 3-(1-oxo-5-(5-phenyloxazol-4-yl)isoindolin-2-yl)piperidine-2,6-dione]
≥ 25 nM | F (F = >75-100% remaining) | E (E = >25-75% remaining) | < 25 nM |  |  |  |  | Cc1ccc(Cl)c(-c2c(-c3ccc4c(c3)CN(C3CCC(=O)NC3=O)C4=O)cnn2C)c1 (centres unmarked) [Example 86]
≥ 25 nM | F (F = >75-100% remaining) | E (E = >25-75% remaining) | ≥ 25 nM |  |  |  |  | Cc1nn(C)cc1-c1c(-c2ccc3c(c2)CN(C2CCC(=O)NC2=O)C3=O)ncn1C (centres unmarked) [Example 323]
< 25 nM | F (F = >75-100% remaining) | E (E = >25-75% remaining) | < 25 nM |  |  |  |  | Cn1cnc(-c2ccc3c(c2)CN(C2CCC(=O)NC2=O)C3=O)c1-c1cc(Cl)ccc1C#N (centres unmarked) [Example 272]
≥ 25 nM | F (F = >75-100% remaining) | E (E = >25-75% remaining) | ≥ 25 nM |  |  |  |  | Cn1ncc(-c2ccc3c(c2)CN(C2CCC(=O)NC2=O)C3=O)c1-c1ccc(F)c(C#N)c1 (centres unmarked) [Example 58]
 |  |  |  | ≥ 25 nM | F (F = >75-100% remaining) | E (E = >25-75% remaining) | ≥ 25 nM | CN1CCC(c2c(-c3ccc4c(c3)CN(C3CCC(=O)NC3=O)C4=O)cnn2C)CC1 (centres unmarked) [Example 590]
< 25 nM | F (F = >75-100% remaining) | D (D = >10- 25% remaining) | < 25 nM |  |  |  |  | Cc1cccc(-c2c(-c3ccc4c(c3)CN(C3CCC(=O)NC3=O)C4=O)ncn2C)c1F (centres unmarked) [Example 171]
≥ 25 nM | F (F = >75-100% remaining) | E (E = >25-75% remaining) | < 25 nM |  |  |  |  | Cn1ncc(-c2ccc3c(c2)CN(C2CCC(=O)NC2=O)C3=O)c1-c1ccccc1N (centres unmarked) [Example 127]
